In paper PMC10034064, “Expanding the apelin receptor pharmacological toolbox using novel fluorescent ligands” (Frontiers in Endocrinology, 2023):
Bridge positions count the residues as written; N and C are the ends. Peptide text beside a SMILES is read from it.

Legend:
apelin receptor [1] = target: T1, apelin receptor (Homo sapiens, UniProt P35414); assay: Fluorescent ligand binding (saturation, specificity, competition) in CHO-APLNR cells by high content imaging; set-up: host or cells: CHO-K1
T1 sequence (P35414 1-380): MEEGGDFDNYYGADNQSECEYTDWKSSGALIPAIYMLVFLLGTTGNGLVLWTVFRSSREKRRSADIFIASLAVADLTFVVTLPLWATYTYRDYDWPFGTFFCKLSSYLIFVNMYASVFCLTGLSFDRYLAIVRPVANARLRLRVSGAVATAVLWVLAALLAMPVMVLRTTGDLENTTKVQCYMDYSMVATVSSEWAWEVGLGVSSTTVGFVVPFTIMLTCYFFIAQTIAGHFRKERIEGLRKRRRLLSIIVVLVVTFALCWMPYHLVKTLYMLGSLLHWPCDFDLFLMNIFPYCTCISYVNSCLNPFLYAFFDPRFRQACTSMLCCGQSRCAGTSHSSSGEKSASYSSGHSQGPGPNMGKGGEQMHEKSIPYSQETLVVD
Method: (§1) Cells were seeded in CellCarrier-96 Ultra Plates at a density of ~10 k/well. […] For time-course experiments, CHO-APLNR were treated with 300 nM of the fluorescent ligand for 0 – 90 mins, in the dark at room temperature. For saturation binding experiments, CHO-APLNR were treated with a concentration range of 1 – 300 nM of the fluorescent ligand for 90 mins, in the dark at room temperature. […] Untransfected CHO-K1 cells were also used as controls. […] At the end-points, CHO-APLNR were washed with HBSS before fixation with 4% formaldehyde. CHO-APLNR were washed with HBSS before treatment with Hoechst 33342 nuclear marker prepared at 10 µg/mL in HBSS for 15 mins. […] The software was also used to calculate binding affinities (Ki values) of competing ligands using the Cheng-Prusoff equation.
(§2) For imaging studies, cells in CellCarrier-96 Ultra Plates (PerkinElmer) were imaged using a 40x/NA1.1 water immersion objective. The device was set to measure an image field within each well, where the field is made up of a 4 x 4 or 5 x 5 grid of imaging regions (where each region is 250 x 250 μm in area). After using Z stacking to find an appropriate focal plane, cells were visualised and imaged at a focal depth of 0.5 μm above the bottom of the plate in all experiments. […]
(§3) Following image acquisition, several cell parameters were quantified using in-built Harmony High Content Imaging and Analysis Software (PerkinElmer). […] Intracellular fluorescence was calculated as fluorescence identified in the membrane collar subtracted from whole cell fluorescence. Mean fluorescence intensities were calculated for membrane and whole cell compartments in observed cells in the selected population, given as fluorescence units provided by Harmony software.

apelin receptor [2] = target: T1, apelin receptor; assay: Radioligand competition binding against [125I]-apelin-13 in human left ventricle homogenate; set-up: Surgical samples of human left ventricle (HLV) tissue were obtained with informed consent; from tissue; host or cells: human left ventricle homogenate; conditions: apelin ligands vs [Pyr1]apelin-13; ELA ligands vs ELA-14
Method: Surgical samples of human left ventricle (HLV) tissue were obtained with informed consent and ethical approval (05/Q104/142). Tissues were snap frozen in liquid nitrogen before storage at -80°C. On the day of preparation, tissue was chopped finely with a razor blade on ice, before subsequent homogenisation using a Polytron Homogenizer (Thomas Scientific), in homogenisation buffer (50 mM Tris-HCl, 5 mM MgCl2, 5 mM EDTA, 1 mM EGTA, 1:500 protease inhibitor cocktail containing aprotinin and amastatin, balanced at pH 7.4) at 4°C. The resulting homogenate was subsequently spun at 1000 xg for 2 mins at 4°C. Supernatant was transferred to another set of tubes (pellet discarded) for a high speed spin at 40,000 xg, for 30 mins at 4°C. Supernatant was then discarded, and the remaining pellet resuspended in 2.5 mL/g of homogenisation buffer, before a second high speed spin at 40,000 xg, for 30 mins at 4°C. The supernatant was discarded, and the remaining pellet was resuspended in HEPES buffer (50 mM HEPES, balanced at pH 7.4 at room temperature) and stored in the freezer at -70°C until use in assays.
The radiolabel has a specific activity of 2200 Ci/mmol. […]
Total binding was determined in the absence of competing fluorescent ligand. […] Radioactivity in pellets was counted using a Cobra II model 5003 gamma counter (Packard). […]

[3] = target: T2, human apelin receptor (AGTRL1) (Homo sapiens, UniProt P35414); assay: PathHunter GPCR internalisation assay in U2OS cells; format: cell-based; conditions: U2OS cells overexpressing human apelin receptor, 90 mins, n = 3
T2 construct: host or cells: U2OS
T2 sequence (P35414 1-380): T1 sequence (P35414 1-380)
Method: Internalisation of apelin receptor following ligand treatment was determined using an in vitro PathHunter GPCR Internalisation Assay (Eurofins). The manufacturer’s protocol was modified in accordance with previous in-house optimisation. All reagents were provided in the assay kit. U2OS cells overexpressing human apelin receptor (AGTRL1) were seeded in cell plating reagent into 96-well plates and incubated for 48 h at 37°C, 5% CO2, humidified. To test novel fluorescent compounds for agonist activity, wells were treated with test compounds over a concentration range in Cell Plating Reagent to generate an 8-point concentration-response curve. Cells were then incubated for 90 mins at 37°C, 5% CO2, humidified before treatment with Working Detection Solution (Cell Assay Buffer, Substrate Reagent 1, Substrate Reagent 2), and incubation for 2 h at room temperature, protected from light. Plates were read in a chemiluminescence detecting LumiLITE Microplate Reader (DiscoveRx, Fremont, CA, USA). Responses, measured in Relative Light Units (RLU), were fitted to four parameter logistic concentration response curves in GraphPad Prism version 6.07 for Windows (GraphPad Software) to determine compound concentrations inducing half maximal response (EC50), and pD2 values (-log10 EC50) were calculated.

apelin receptor [4] = target: T1, apelin receptor; assay: Fluorescent ligand binding in human kidney tissue sections
Method: Frozen human kidney tissue sections (10 µm), were cut using a cryostat onto microscopy slides. […] Slides were washed with HBSS before fixation with 4% formaldehyde for 3 mins.
Automated fluorescent images (16 bit, 0.325 x 0.325 μm scaling per pixel) of fixed and mounted human tissue stained with fluorescent markers were acquired using an Axio Scan Z1 slide scanner (Zeiss) slide scanner with a Plan-Apochromat 20x/NA0.8 M27 objective lens connected to a Hamamatsu Orca Flash camera. An initial brightfield scan was performed to visualise tissue on slides, and a spline contour tool was used to outline the tissue to minimise the total region imaged. A profile with three fluorescent channels was used; a first channel (blue), with an LED-Module 385 nm light source set at 10% intensity and 10 ms exposure time at a depth of focus of 1.45 μm for Hoechst 33342 nuclear marker (405 nm wavelength); a second channel (green), with an LED-Module 475 nm light source set at 80% intensity and 30 ms exposure time at a depth of focus of 1.64 μm for 488 nm wavelengths; and a third channel (yellow/orange), an LED-Module 567 nm light source set at 80% intensity and 30 ms exposure time at a depth of focus of 1.88 μm for 555 nm wavelengths. Focal depths were determined by the slide scanner’s in-built Z stacking autofocusing. All acquired images were saved and visualised using ZEN software (Zeiss) and/or Orbit Image Analysis (ORBIT) software. Regions of interest were identified using the spline contour, and mean fluorescent signal (in grayscales) was provided by ZEN software (Zeiss).

apelin receptor [5] = target: T1, apelin receptor; assay: Dynamic mass redistribution assay in CHO-APLNR cells; format: cell-based; set-up: host or cells: CHO-K1; conditions: maximal change in peak wavelength value from baseline, n = 3
Method: Apelin receptor downstream signalling was determined using an in vitro BIND technology dynamic mass redistribution assay (SRU Biosystems). CHO-APLNR cells were seeded in 96-well biosensor plates (SRU Biosystems) at a density of 50K/well, maintained in 95 µL feeding media, and incubated for 24 h at 37°C, 5% CO2, humidified. The following day, the plate was loaded onto the SRU Biosystems BIND PROFILER TURBO reader, and left to acclimatise to room temperature for 20 mins before a baseline read was taken over 10 mins. To test novel fluorescent compounds for agonist activity, cells were treated with test compounds (5 µL additions in PBS) over a concentration range to generate an 8-point concentration-response curve. The biosensor plate was read for a subsequent 60 mins. Responses, measured in maximal change in peak wavelength value from baseline (ΔPWV), were fitted to four parameter logistic concentration response curves in GraphPad Prism version 6.07 for Windows (GraphPad Software) to determine compound concentrations inducing half maximal response (EC50), and pD2 values (-log10 EC50) were calculated.

apelin receptor [6] = assay: Fluorescent ligand binding (saturation, specificity, competition) in CHO-APLNR cells by high content imaging; conditions: 300 nM apelin647, wild-type CHO-K1 cells without apelin receptor
Method: as §1, §2, §3

[7] = 1 µM fluorescent ligand alone, human kidney sections, 30 mins
[8] = 1 µM fluorescent ligand plus 10 µM [Pyr1]apelin-13 (apelin488) or ELA-14 (ELA488)

## CCC(CC)n1c(Cc2cccs2)nc2cc(C(=O)N[C@H](CC(=O)O)CC(C)C)ccc21 [CMF-019]
Apelin receptor [1]
  pKi: 5.91

## CSCC[C@H](NC(=O)[C@H](CS)NC(=O)[C@H](CCCNC(=N)N)NC(=O)[C@H](CCCNC(=N)N)NC(=O)[C@H](CCC(N)=O)NC(=O)CCOCCOCCOCCOCCNC(=O)c1ccc(-c2c3ccc(=N)c(S(=O)(=O)O)c-3oc3c(S(=O)(=O)O)c(N)ccc23)c(C(=O)O)c1)C(=O)N1CCC[C@H]1C(=O)N[C@@H](CC(C)C)C(=O)N[C@@H](Cc1c[nH]cn1)C(=O)N[C@@H](CO)C(=O)N[C@@H](CCCNC(=N)N)C(=O)N[C@H](C(=O)N1CCC[C@H]1C(=O)N[C@@H](Cc1ccccc1)C(=O)N1CCC[C@H]1C(=O)O)C(C)C [ELA488]
Apelin receptor [2]
  binding affinity fold lower than the unlabelled endogenous parent ligand: ~ 23 fold
[3]
  Emax: 169693 ± 9461 RLU
Apelin receptor [4]; [7]
  mean fluorescence in renal blood vessels: 18869 ± 5968 grayscales
  mean fluorescence in tubular structures of the renal cortex: 7392 ± 1338 grayscales
Apelin receptor [4]; [8]
  mean fluorescence in renal blood vessels in the presence of unlabelled parent ligand: 7946 ± 3656 grayscales
  mean fluorescence in tubular structures of the renal cortex in the presence of unlabelled parent ligand: 2458 ± 801 grayscales
Apelin receptor [5]
  Emax: 240.32 ± 27.91 ΔPWV

## CSCC[C@H](NC(=O)[C@H](CS)NC(=O)[C@H](CCCNC(=N)N)NC(=O)[C@H](CCCNC(=N)N)NC(=O)[C@H](CCC(N)=O)NC(=O)CCOCCOCCOCCOCCNC(=O)CCCCCC1(C)C(=CC=CC=CC2=[N+](CCCS(=O)(=O)[O-])c3ccc(S(=O)(=O)O)cc3C2(C)C)N(CCCS(=O)(=O)O)c2ccc(S(=O)(=O)O)cc21)C(=O)N1CCC[C@H]1C(=O)N[C@@H](CC(C)C)C(=O)N[C@@H](Cc1c[nH]cn1)C(=O)N[C@@H](CO)C(=O)N[C@@H](CCCNC(=N)N)C(=O)N[C@H](C(=O)N1CCC[C@H]1C(=O)N[C@@H](Cc1ccccc1)C(=O)N1CCC[C@H]1C(=O)O)C(C)C (stereo partly shown) [ELA647]
Apelin receptor [2]
  binding affinity fold lower than the unlabelled endogenous parent ligand: ~ 58 fold
[3]
  Emax: 128992 ± 6218 RLU
Apelin receptor [5]
  Emax: 185.23 ± 36.82 ΔPWV

## CC(C)C[C@@H]1NC(=O)[C@H](CCCNC(=N)N)NC(=O)[C@@H]2CCCN2C(=O)[C@H](CCCNC(=N)N)NC(=O)[C@@H](NC(=O)[C@H](Cc2c[nH]cn2)NC(=O)[C@H](CCCCN)NC(=O)[C@@H]2CSSC[C@H](N)C(=O)N[C@@H](CCCNC(=N)N)C(=O)N3CCC[C@H]3C(=O)N[C@@H](CCCNC(=N)N)C(=O)N[C@@H](CC(C)C)C(=O)N2)CSSC[C@@H](C(=O)O)NC1=O [MM54] (H-CRPRLCKHCRPRLC-OH; disulfide 1-6, 9-14)
Apelin receptor [1]
  Ki: 5.75 µM

## CCCC[C@H](NC(=O)[C@@H]1CCCN1C(=O)CNC(=O)[C@H](CCCCN)NC(=O)[C@H](Cc1c[nH]cn1)NC(=O)[C@H](CO)NC(=O)[C@H](CC(C)C)NC(=O)[C@H](CCCNC(=N)N)NC(=O)[C@@H]1CCCN1C(=O)[C@H](CCCNC(=N)N)NC(=O)[C@H](CCC(N)=O)NC(=O)CCOCCOCCOCCOCCNC(=O)CCCCCC1(C)C(=CC=CC=CC2=[N+](CCCS(=O)(=O)[O-])c3ccc(S(=O)(=O)O)cc3C2(C)C)N(CCCS(=O)(=O)O)c2ccc(S(=O)(=O)O)cc21)C(=O)N1CCC[C@H]1C(=O)N[C@@H](Cc1ccc(OCc2ccccc2)cc1)C(=O)O (stereo partly shown) [apelin647]
Apelin receptor [6]
  binding in wild-type CHO-K1 cells: 0.70 ± 0.45 mean fluorescence
